Assay results reported in patent US20090054328A1, “Reagents and Methods for Modulating Gene Expression Related to Hypertension” (The Board of Trustees of the University of Illinois, priority 2005, published 2009).

Legend:
[1] = test system: MLL prostate tumors; assay: MLL prostate tumors in Copenhagen rats; assay type: in vivo, rat; settings: for TUNEL positive nuclei in tumors: 300 cells from randomly chosen fields, control 19.2%
Description: To test the anticancer effect of ML-7 in a rat prostate cancer model as follows. MLL cells grown in culture as described above were harvested and washed in serum-free Hank's buffer. The cells were suspended in 500 μl serum-free Hank's and 10^6 cells were injected subcutaneously into the right flank of 12-week old male Copenhagen rats anesthetized with ether. […] The rats were randomly divided into four groups, five in each group. The rats received injections of ML-7 or vehicle via the jugular vein every 4 days for 2 weeks. ML-7 was used at the dose of 35 mg/kg. Etoposide was injected intraperitoneal injection (IP) at the maximum tolerant dose of 50 mg/m^2 daily (Muenchen et al., 2000, Anticancer Res 20:735-40), The rats were sacrificed with ether 14 days after the start of drug treatment. The tumors were removed, weighed and processed as described above.
Tumor sections were also examined for apotosis using TUNEL staining Sections were deparaffinized and rehydrated according to standard protocol. Tissue sections were permeabilized by placing slides in 10 mM citrate buffer (pH 6.0) and applying 350W microwave irradiation for 5 min. Tissue sections were then stained with TMR Red-labelled terminal deoxynucleotidyl transferase dUTP nick-end labeling (TUNEL) enzyme reagent using the In Situ Cell Death Detection kit (Roche Molecular Biochemicals, Indianapolis, Ind.) as described by the manufacturer. Sections stained with the labeling solution without the terminal transferase were used as negative control. Tissue sections were finally mounted using Vectashield containing DAPI and examined using a Zeiss LSM 510 laser confocal microscope.

[2] = test system: MLC-P in MLL cells; assay: MLC-P by urea/glycerol gel-immunoblotting in MLL cells; assay type: cell-based, rat; settings: 5 μM ML-7, 30 μM etoposide or both
Description: (§1) MLC-P expression was measured in the cells using urea/glycerol gel-immunoblotting as follows. […] The unphosphoryiated and phosphorylated forms of MLC20 were separated using urea/glycerol PAGE, transferred to nitrocellulose and probed with an affinity purified antibody to MLC20. This antibody recognizes the unphosphoryiated and phosphorylated forms of MLC20. Immunoreactive bands were visualized using enhanced chemiluminescence (ECL) detection reagents (Amersham Pharmacia Biotech, Piscataway, N.J.) (Fazal et al., 2005, Mol Cell Biol 25:6259-66).
To determine if ML-7 stimulates the ability of etoposide to induce apoptosis and retard tumor growth widely, the effects of ML-7 and etoposide on MLL prostate cancer cells were determined. In this case, pre-treated MLL cells were grown in culture with 5 μM ML-7 before adding varying concentrations of etoposide from 1 to 1000 μlM.

[3] = test system: MLL rat prostate cancer cells; assay: Apoptosis by FACS (annexin V and PI) in MLL cells; assay type: cell-based
Description: (§2) Mm5MT or MLL cells (200,000 cells per well) were seeded in 6-well dishes one day before drug treatment and cultured as described above.
(§3) On the day of the experiment, media was changed to DMEM supplemented with 0.5% FBS and the cells were treated with drugs as defined by the specific experimental protocol. […] At least 10,000 cells were counted per analysis and cells that stained positive for annexin V and PI were judged to be apoptotic.

[4] = test system: Mm5MT mouse mammary cancer cells; assay: Apoptosis by FACS (annexin V and PI) in Mm5MT cells; assay type: cell-based
Description: as §2, §3
The cells were then treated with trypsin, washed twice with cold PBS and re-suspended in 100 μl of buffer containing 10 mM Hepes, pH 7.4, 140 mM NaCl and 2.5 mM CaCl2 (binding buffer). Then, 5 μl of FITC-conjugated annexin V (Pharmingen, San Diego, Calif.) and 10 μl of propidium iodide (PI) (50 μg/ml) were added and cells were incubated in the dark at room temperature for 15 min.

[5] = test system: smooth muscle cells; settings: cited from earlier work
[6] = test system: SHR; assay: Systolic blood pressure (tail-cuff) in SHR, drug given continuously for 3 weeks by osmotic pump; assay type: in vivo, rat; settings: SHR 16 weeks old at start; osmotic pump, continuous 3 weeks; vehicle 221.6
Description: The importance of regulating MLCK expression by Ras signaling in vivo was further investigated by treating SHR with U0126 continuously for 3 weeks. U0126 is a specific inhibitor MEK (Favata et al., 1998J. Biol. Chem. 273: 18623-18632), an upstream regulator of ERK in the Ras signaling pathway (Chien & Hoshijima, 2002, Id.). […] In these experiments, Systolic blood pressure (SBP) was measured using tail-cuff sphygmomanometry (IITC Incorporated/Life Sciences Institute, Woodland Hills Calif.). Drugs were delivered via an osmotic pump (DURECT Corporation, Cupertino, Calif.) implanted subcutaneously in the shoulder. The pumps (having a 2 mL capacity at a delivery rate of 2.45 μL/hour) were filled with 13.5 mM U0126 (BIOMOL Research Laboratories, Plymouth Meeting, Pa.) dissolved in 50% DMSO or vehicle alone. Three weeks later, rats were sacrificed and aortas were removed. Some vessels were processed for histology, while other tissue was immediately placed in ice-cold acetone containing 10% trichloroacetic acid (TCA) and 10 mM dithiothreitol (DTT). Endothelial cells were removed by gently rubbing the inside of the vessels with a cell lifter and connective tissue was removed by dissection. The cleaned vessels were then frozen on dry ice and stored at −80° C. for biochemical analysis.
Another experiment was conducted to determine if inhibiting Ras signaling could decrease blood pressure in SHR.

[7] = test system: MLC-P in Mm5MT cells; assay: MLC-P by urea/glycerol gel-immunoblotting in Mm5MT cells; assay type: cell-based, mouse; settings: 10 μM ML-7, 30 μM etoposide or both, 16 hours
Description: as §1

[8] = test system: precancerous mammary alveolar lesions (MAL); assay: Mouse mammary gland organ culture, DMBA-induced mammary alveolar lesions (MAL); assay type: cell-based
Description: To determine the effects of inhibiting MLCK in mammary tumors, an in vitro mammary cancer model was used as follows. Mammary glands obtained from young Balb/c mice that are exposed to 7,12-dimethylbenz(a)anhracene (DMBA) for 24 hours in culture form precancerous lesions in 24 days (Mehta et al., 2000, J Natl Cancer Instit 92:418-23). In this experiment, 70 mammary glands from 35 Balb/c mice were divided into seven groups of 10 glands each and incubated in serum-free medium containing insulin, prolactin (5 μg/ml each), aldosterone and hydrocortisone (1 μg/ml each) for 10 days. DMBA (2 μg/ml) was included in the medium for 24 hours on day 3. The glands were incubated for an additional 14 days in the absence of hormones except insulin. This allows the regression of the normal mammary alveolar structures. […] Chemopreventive agents were included in the medium during the first 10 days. The glands were fixed in formalin and stained with alum carmine and evaluated for MAL. Percent inhibition was calculated by comparing the incidence in the control glands with the treated groups.

[9] = test system: Mm5MT mammary tumors; settings: for tumor growth (in words): mice, 27 mM ML-7 osmotic pump or 25 mg/kg etoposide i.p., 4 weeks, only the etoposide effect statistically significant; for tolerability on physical examination: mouse, in vivo
Description: To investigate the anticancer activity of ML-7 in vivo, Mm5MT cells were injected into the right flanks of female mice as follows. Mm5MT cells grown in culture were harvested immediately before injection into syngeneic MMTV-C3H/HeM mice. Cells were washed to remove serum and 10^6 cells were resuspended in 100 μl of serum-free DMEM. Healthy, MMTV-free female mice (14-20 weeks old) were anesthetized with ether and 10^6 cells were injected subcutaneously into the right flank. The mice were randomly divided into four groups of five mice, each, and treated with vehicle, ML-7, etoposide or ML-7 plus etoposide. Drug administration was started 1 week after the cells were injected. To deliver ML-7, a small horizontal incision was made in the interscapular area and a 200 μl osmotic pump (Alzet, Cupertino, Calif.) filled with either 27 mM ML-7 in 50% DMSO or 50% DMSO (vehicle control) was implanted and the wound closed. […] When given, 25 mg/kg etoposide was injected intraperitoneally on the first 3 days of every week for 4 weeks (days 7-9, 14-16, 21-23 and 28-30) (Nakamura el al 2003, Cancer Sci 94:119-24). The mice were sacrificed with ether after 4 weeks of drug administration and tumors were removed, weighed and processed for analysis.
Histological analysis of the tumors was conducted as follows. The excised tumours were gently patted dry and weighed using a Mettler digital balance. Tumors were then sectioned into 2 mm slices, fixed in 10% neutral buffered formalin, routinely processed and embedded in paraffin. […] Photomicrographs documenting the entire section were collected and areas of necrotic and viable tumor were determined using the manual tracing tools within MetaMorph 6.2 (Universal Imaging Corporation, Downingtown, Pa.).

SMILES | TUNEL positive nuclei in tumors [1] | decrease in tumor weight ([1]; Copenhagen rats, ML-7 35 mg/kg every 4 days, etoposide 50 mg/m^2 daily IP, 14 days, vs. vehicle control) [%] | MLC-P [2] | apoptotic cells (annexin V and PI positive) ([3]; 5-25 μM ML-7, 16 h) | apoptosis by ML-7 by itself ([4]; 10 μM ML-7, 0 etoposide) | apoptotic cells (annexin V and PI positive) ([4]; 5-25 μM ML-7, 16 h) | apoptosis in smooth muscle cells [5] | systolic blood pressure at the end of the 3-week treatment period [6] [mmHg] | MLC-P [7] | inhibition of MAL development ([8]; 0.1 μM, compared to control) | inhibition of MAL development ([8]; 1 μM, compared to a 70% incidence in the control glands) [%] | tumor growth (in words) [9] | tolerability on physical examination [9] | EC50 ([3]; Rattus norvegicus, with ML-7 (5 μM pretreatment), read-out: concentration of etoposide required for inducing apoptosis in 50% of the cells) [µM] | inhibition of the incidence of lesion formation ([8]; 1 and 10 μM, compared to control)
O=S(=O)(c1cccc2c(I)cccc12)N1CCCNCC1 [ML-7] | 40,6% | 29.6 | decreased | dose-dependent increase | significantly increased | dose-dependent increase | induces apoptosis | 165.0±3.9 | decreased | 40% | 58 | decreased | tolerated these drugs without visible signs of discomfort |  | 
COc1cc([C@@H]2c3cc4c(cc3[C@@H](O[C@@H]3O[C@@H]5CO[C@@H](C)O[C@H]5[C@H](O)[C@H]3O)[C@H]3COC(=O)[C@H]23)OCO4)cc(OC)c1O [etoposide] | 35.8% |  | smaller decrease |  |  |  |  |  | decreased | did not affect |  | decreased | tolerated these drugs without visible signs of discomfort | 68 | 40-46%
